Experimental data: patent US20180251431A1 (VERTEX PHARMACEUTICALS INCORPORATED, priority 2016, published 2018)

Experiments:
[1] = system: ALD patient B-lymphocytes; assay: Reduction in C26:0 LPC in ALD patient B-lymphocytes in vitro; type: cell-based; conditions: Homo sapiens, Lymphocyte, half maximal reduction in C26:0 LPC
Procedure: Lysophosphatidylcholine (LPC) VLCFA were generated from straight chain VLCFA (SC-VLCFA) and were used clinically for newborn screening (Vogel et al., Mol. Genet. Metab. (2015) 114(4):599-603). In vitro efficacy studies were performed by measuring LPC VLCFA level (measured as LPC synthesis) in various cell lines, specifically in 1) human HEK cells, 2) patient derived cells, and 3) human microglia, which are disease relevant CNS cells. Compound 87's dose response relationships and IC50 values were measured in HEK cells, primary patient fibroblasts, immortalized patient lymphocytes, and a human microglial cell line. To measure LPC VLCFA synthesis, the foregoing cells were grown in the presence of ^13C labeled acetate (13C Labeled sodium acetate; Sigma Aldrich #282014) and Compound 87 (prepared in DMSO) for about 48 hours. Primary patient fibroblasts and immortalized primary patient lymphocytes were acquired from the Coriell Cell Repository at the Coriell Institute for Medical Research.
Immortalized primary patient lymphocytes cell lines (cell lines GM13496, GM13497, and GM04674) were obtained from the Coriell Cell Repository at the Coriell Institute for Medical Research. Lymphocytes were cultured and plated at a desired cell density, such as 1×10^5 cells/well. […] The plate was sealed with a plate tape and put at −80° C. for further VLCFA extraction and VLCFA quantitation on LC-MS, as described below.
VLCFA Extraction and Quantitation on LCMS:
Treated cells were transferred to a polypropylene v-bottom plate and then centrifuged at 1690×g for 10 minutes. […] The plates were then sealed with pierceable capmats (Micronic MP53017) and stored at −20° C. until further analyzed using UPHLC/Mass Spectrometry Readout, as described above in example 2.1, which measured the integration of ^13C into lysophosphatidylcholine (LPC) indicated fatty acid elongation. Specifically, C16:0, C18:0, C20:0, C22:0, C24:0, and C26:0 LPC levels were measured via mass spectroscopy as described above and IC50 values indicated half maximal reduction in C26:0 LPC levels.

ABCD1 KO mice = assay: Thermal pain sensitivity (Plantar test, Hargreaves apparatus) in ABCD1 KO mice; type: in vivo, mouse; conditions: male ABCD1 KO mice
Procedure: ABCD1 KO mice were used as a functional model of AMN. ABCD1 KO mice display a progressive loss of sensitivity to painful thermal stimulus similar to symptoms observed in AMN patients such as decreased sensitivity to touch. To determine the effect of Compound 87 on thermal sensitivity, Compound 87 was dosed PO QD either prophylactically or therapeutically to determine whether ABCD1 KO mice have different latency thresholds for the Plantar test (Hargreaves apparatus) response compared to wild-type (WT) mice. For the prophylactic study, mice were tested beginning at 10 months of age (before the loss of pain sensitivity) using doses of either 5 or 20 mg/kg. For the therapeutic study, mice were tested beginning at 18 months of age, after there was already a significant loss of pain sensitivity, using doses of either 32 or 64 mg/kg. […] The Plantar test (using a Hargreaves apparatus) was used and measured the latency to respond to a thermal stimulus using the following protocol. An individual mouse was placed into an individual compartment with a glass floor for about 10-15 minutes until they were settled. Each individual mouse was given three trials with an infrared source on each hind paw (alternated hind paws each time, and waited 5 minutes between each trial). […] When a response was observed (paw withdrawal), the key/button was released and the latency to respond was recorded (in seconds).

[2] = Metabolic intrinsic clearance in human hepatocytes; type: in vitro ADME; conditions: cryopreserved hepatocytes in suspension, pH 7.5, 0.5 million cells/mL, incubation for 4 hours
Procedure: The metabolic intrinsic clearance (CLint) of Compound 87 was determined in human, monkey, dog, rat, and mouse hepatocytes. Cryopreserved human hepatocytes (Lot Hue50c), monkey hepatocytes (cynomolgus; Lot Cy328), dog hepatocytes (beagle, Lot Db235), rat hepatocytes (Sprague Dawley; NNH), and mouse hepatocytes (CD-1; Lot Mc522) were obtained from ThermoFisher (Paisley, UK). In separate experiments, compound 87 (1 μM) was incubated with hepatocytes from each species (0.5 million cells/mL, suspension) in Dulbecco's Modified Eagle's Medium (DMEM) supplemented with 4-(2-Hydroxyethyl)piperazine-1-ethanesulfonic acid (HEPES, 9 mM) and fructose (2.2 mM) (pH 7.5). Samples were quenched with acetonitrile and analyzed by LC-MS/MS. The mean CLint for Compound 87 in human, monkey, dog, rat, and mouse hepatocytes after incubation for 4 hours was determined to be ≤2.5, ≤2.5, 7.2, 23.6 and 10.7 μL/min/million cells. Based on these date, Compound 87 was low to moderately metabolized in hepatocytes in mouse, rat, dog, monkey, and human, and the rank order of stability at […] was approximately human>monkey>dog>mouse>rat. […] The metabolic stability of Compound 87 was not expected.

IC50 ([1]; Patient Lymphocyte (CALD)): 15 nM | IC50 ([1]; Patient Lymphocyte (Het 1)): 5 nM | IC50 ([1]; Patient Lymphocyte (Het 2)): 9 nM | hepatocyte CLint at 1 μM [2]: ≤ 2.5 µL/min/1e6 cells
SMILES: O=C(Nc1ccn(-c2ccnc(F)c2)n1)C1(c2ccccc2F)CC1 [Compound 87, 1-(2-fluorophenyl)-N-[1-(2-fluoro-4-pyridyl)pyrazol-3-yl]cyclopropanecarboxamide]
thermal pain sensitivity (response latency, Plantar test), prophylactic treatment (ABCD1 KO mice; 5 or 20 mg/kg PO QD, dosing initiated at 10 months of age, 6 month period): reduced the loss of thermal pain sensitivity | thermal pain sensitivity (response latency, Plantar test), therapeutic treatment (ABCD1 KO mice; 32 or 64 mg/kg PO QD, dosing initiated at 18 months of age): reversed the loss of thermal pain sensitivity
